From patent US11000033B2, “Ketone or oxime compound, and herbicide” (NISSAN CHEMICAL CORPORATION, priority 2014, dated 2021)

Assays:
Type in all cases: in vivo
[1] = tested on: Echinochloa crus-galli var. crus-galli; assay: Test Example 3: herbicidal effect by foliage application, Wagner pot (symbol H); conditions: application herbicide amount 320 g/ha
Procedure, shortened: (§1)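 Scoring took place 3 weeks after application, using fixed criteria. Plants had been raised from seed for 14 days at 25 to 30 °C in submerged alluvial soil before a diluted emulsion of the test compound was sprayed uniformly on the leaves.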

Leptochloa chinensis = assay: Test Example 3: herbicidal effect by foliage application, Wagner pot (symbol D); conditions: application herbicide amount 320 g/ha
Procedure, shortened: as §1

Cyperus difformis = assay: Test Example 3: herbicidal effect by foliage application, Wagner pot (symbol E); conditions: application herbicide amount 320 g/ha
Procedure, shortened: as §1

[2] = tested on: directly sowed rice plant; assay: Test Example 3: effect on crop by foliage application, Wagner pot (symbol b); conditions: application herbicide amount 320 g/ha
Procedure, shortened: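 Plants are raised from seed in flooded paddy conditions: water stands 0.1–0.5 cm over alluvial soil, and the pot is kept in a greenhouse at 25–30 °C. Species sown are barnyardgrass (E. crus-galli var. crus-galli), Leptochloa chinensis, Cyperus difformis and rice.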

Digitaria ciliaris = assay: Test Example 5: herbicidal effect by foliage application, plastic box (symbol F); conditions: 320 g/ha, 3 weeks after application
Excerpt: (§2) Herbicidal Effect Test by Foliage Application
(§3) Sterilized diluvial soil was placed in a plastic box having a length of 21 cm, a width of 13 cm, and a depth of 7 cm. Each of the seeds of Digitaria ciliaris, Setaria viridis, Echinochloa crus-galli var. crus-galli, Avena fatua, Alopecurus myosuroides, Lolium multiflorum Lam., Apera spica-venti, Abutilon theophrasti, Amaranthus retroflexus, Chenopodium album, Stellaria media, Galium spurium, Veronica persica, corn, soybean, rice plant, wheat, beet, and rapeseed was sowed in a spot-like manner and was covered with the soil of a thickness of about 1.5 cm. Thereafter, the plants were grown in the greenhouse of 25° C. to 30° C. After the plants were grown for 14 days, the emulsion agent of the compound of the present invention prepared in accordance with Formulation Example 2 was diluted with water so as to be a predetermined herbicide amount and the diluted emulsion agent was uniformly applied to a foliage part with a small-size spray. 3 weeks later from the herbicide application, the effect to each plant was investigated in accordance with the criteria of Test Example 1.

Setaria viridis = assay: Test Example 5: herbicidal effect by foliage application, plastic box (symbol G); conditions: 320 g/ha, 3 weeks after application
Excerpt: as §2, §3

[3] = tested on: Echinochloa crus-galli var. crus-galli; assay: Test Example 5: herbicidal effect by foliage application, plastic box (symbol H); conditions: 320 g/ha, 3 weeks after application
Excerpt: as §2, §3

Avena fatua = assay: Test Example 5: herbicidal effect by foliage application, plastic box (symbol I); conditions: 320 g/ha, 3 weeks after application
Excerpt: as §2, §3

Alopecurus myosuroides = assay: Test Example 5: herbicidal effect by foliage application, plastic box (symbol J); conditions: 320 g/ha, 3 weeks after application
Excerpt: as §2, §3

Lolium multiflorum Lam. = assay: Test Example 5: herbicidal effect by foliage application, plastic box (symbol K); conditions: 320 g/ha, 3 weeks after application
Excerpt: as §2, §3

Apera spica-venti = assay: Test Example 5: herbicidal effect by foliage application, plastic box (symbol L); conditions: 320 g/ha, 3 weeks after application
Excerpt: as §2, §3

Abutilon theophrasti = assay: Test Example 5: herbicidal effect by foliage application, plastic box (symbol M); conditions: 320 g/ha, 3 weeks after application
Excerpt: as §2, §3

Amaranthus retroflexus = assay: Test Example 5: herbicidal effect by foliage application, plastic box (symbol N); conditions: 320 g/ha, 3 weeks after application
Excerpt: as §2, §3

Chenopodium album = assay: Test Example 5: herbicidal effect by foliage application, plastic box (symbol O); conditions: 320 g/ha, 3 weeks after application
Excerpt: as §2, §3

Stellaria media = assay: Test Example 5: herbicidal effect by foliage application, plastic box (symbol P); conditions: 320 g/ha, 3 weeks after application
Excerpt: as §2, §3

Galium spurium = assay: Test Example 5: herbicidal effect by foliage application, plastic box (symbol Q); conditions: 320 g/ha, 3 weeks after application
Excerpt: as §2, §3

Veronica persica = assay: Test Example 5: herbicidal effect by foliage application, plastic box (symbol R); conditions: 320 g/ha, 3 weeks after application
Excerpt: as §2, §3

corn = assay: Test Example 5: effect on crop by foliage application, plastic box (symbol c); conditions: 320 g/ha, 3 weeks after application
Excerpt: as §2
(§4) Sterilized diluvial soil was placed in a plastic box having a length of 21 cm, a width of 13 cm, and a depth of 7 cm. Each of the seeds of Digitaria ciliaris, Setaria viridis, Echinochloa crus-galli var. crus-galli, Avena fatua, Alopecurus myosuroides, Lolium multiflorum Lam., Apera spica-venti, Abutilon theophrasti, Amaranthus retroflexus, Chenopodium album, Stellaria media, Galium spurium, Veronica persica, corn, soybean, rice plant, wheat, beet, and rapeseed was sowed in a spot-like manner and was covered with the soil of a thickness of about 1.5 cm. Thereafter, the plants were grown in the greenhouse of 25° C. to 30° C.

soybean = assay: Test Example 5: effect on crop by foliage application, plastic box (symbol d); conditions: 320 g/ha, 3 weeks after application
Excerpt: as §2, §4

rice plant = assay: Test Example 5: effect on crop by foliage application, plastic box (symbol b); conditions: 320 g/ha, 3 weeks after application
Excerpt: as §2, §4

wheat = assay: Test Example 5: effect on crop by foliage application, plastic box (symbol e); conditions: 320 g/ha, 3 weeks after application
Excerpt: as §2, §4

beet = assay: Test Example 5: effect on crop by foliage application, plastic box (symbol f); conditions: 320 g/ha, 3 weeks after application
Excerpt: as §2, §4

rapeseed = assay: Test Example 5: effect on crop by foliage application, plastic box (symbol g); conditions: 320 g/ha, 3 weeks after application
Excerpt: as §2, §4

SMILES: CC(CC1CC(O)=C(c2c(C)cc(C)cc2C)C1=O)=NOCCN (centres unmarked) [1-132]
- herbicidal effect on H (Echinochloa crus-galli var. crus-galli), grade 0-5 [1]: 2 (Herbicidal ratio of 20% or higher and lower than 40%)
- herbicidal effect on D (Leptochloa chinensis), grade 0-5 (Leptochloa chinensis): 1 (Herbicidal ratio of 5% or higher and lower than 20%)
- herbicidal effect on E, grade 0-5 (Cyperus difformis): 0 (Herbicidal ratio of 5% or lower (almost no effect))
- effect on crop b (directly sowed rice plant), grade 0-5 [2]: 1 (Herbicidal ratio of 5% or higher and lower than 20%)
- F: Digitaria ciliaris, herbicidal effect (criteria 0-5) (Digitaria ciliaris): 0 (Herbicidal ratio of 5% or lower (almost no effect))
- G: Setaria viridis, herbicidal effect (criteria 0-5) (Setaria viridis): 0 (Herbicidal ratio of 5% or lower (almost no effect))
- H: Echinochloa crus-galli var. crus-galli, herbicidal effect (criteria 0-5) [3]: 0 (Herbicidal ratio of 5% or lower (almost no effect))
- I: Avena fatua, herbicidal effect (criteria 0-5) (Avena fatua): 1 (Herbicidal ratio of 5% or higher and lower than 20%)
- J: Alopecurus myosuroides, herbicidal effect (criteria 0-5) (Alopecurus myosuroides): 2 (Herbicidal ratio of 20% or higher and lower than 40%)
- K: Lolium multiflorum Lam., herbicidal effect (criteria 0-5) (Lolium multiflorum Lam.): 3 (Herbicidal ratio of 40% or higher and lower than 70%)
- L: Apera spica-venti, herbicidal effect (criteria 0-5) (Apera spica-venti): 1 (Herbicidal ratio of 5% or higher and lower than 20%)
- M: Abutilon theophrasti, herbicidal effect (criteria 0-5) (Abutilon theophrasti): 0 (Herbicidal ratio of 5% or lower (almost no effect))
- N: Amaranthus retroflexus, herbicidal effect (criteria 0-5) (Amaranthus retroflexus): 0 (Herbicidal ratio of 5% or lower (almost no effect))
- O: Chenopodium album, herbicidal effect (criteria 0-5) (Chenopodium album): 0 (Herbicidal ratio of 5% or lower (almost no effect))
- P: Stellaria media, herbicidal effect (criteria 0-5) (Stellaria media): 0 (Herbicidal ratio of 5% or lower (almost no effect))
- Q: Galium spurium, herbicidal effect (criteria 0-5) (Galium spurium): 0 (Herbicidal ratio of 5% or lower (almost no effect))
- R: Veronica persica, herbicidal effect (criteria 0-5) (Veronica persica): 0 (Herbicidal ratio of 5% or lower (almost no effect))
- c: corn, effect on crop (criteria 0-5) (corn): 0 (Herbicidal ratio of 5% or lower (almost no effect))
- d: soybean, effect on crop (criteria 0-5) (soybean): 0 (Herbicidal ratio of 5% or lower (almost no effect))
- b: directly sowed rice plant, effect on crop (criteria 0-5) (rice plant): 1 (Herbicidal ratio of 5% or higher and lower than 20%)
- e: wheat, effect on crop (criteria 0-5) (wheat): 0 (Herbicidal ratio of 5% or lower (almost no effect))
- f: beet, effect on crop (criteria 0-5) (beet): 0 (Herbicidal ratio of 5% or lower (almost no effect))
- g: rapeseed, effect on crop (criteria 0-5) (rapeseed): 3 (Herbicidal ratio of 40% or higher and lower than 70%)

SMILES: CCOC(=O)C(C(=O)C1CCCCC1)C1CC(O)=C(c2c(C)cc(C)cc2C)C1=O (centres unmarked) [2-029]
- herbicidal effect on H (Echinochloa crus-galli var. crus-galli), grade 0-5 [1]: 0 (Herbicidal ratio of 5% or lower (almost no effect))
- herbicidal effect on D (Leptochloa chinensis), grade 0-5 (Leptochloa chinensis): 0 (Herbicidal ratio of 5% or lower (almost no effect))
- herbicidal effect on E, grade 0-5 (Cyperus difformis): 0 (Herbicidal ratio of 5% or lower (almost no effect))
- effect on crop b (directly sowed rice plant), grade 0-5 [2]: 4 (Herbicidal ratio of 70% or higher and lower than 90%)
- F: Digitaria ciliaris, herbicidal effect grade (Digitaria ciliaris): 0 (Herbicidal ratio of 5% or lower (almost no effect))
- G: Setaria viridis, herbicidal effect grade (Setaria viridis): 0 (Herbicidal ratio of 5% or lower (almost no effect))
- H: Echinochloa crus-galli var. crus-galli, herbicidal effect grade [3]: 0 (Herbicidal ratio of 5% or lower (almost no effect))
- I: Avena fatua, herbicidal effect grade (Avena fatua): 2 (Herbicidal ratio of 20% or higher and lower than 40%)
- J: Alopecurus myosuroides, herbicidal effect grade (Alopecurus myosuroides): 0 (Herbicidal ratio of 5% or lower (almost no effect))
- K: Lolium multiflorum Lam., herbicidal effect grade (Lolium multiflorum Lam.): 1 (Herbicidal ratio of 5% or higher and lower than 20%)
- L: Apera spica-venti, herbicidal effect grade (Apera spica-venti): 0 (Herbicidal ratio of 5% or lower (almost no effect))
- M: Abutilon theophrasti, herbicidal effect grade (Abutilon theophrasti): 0 (Herbicidal ratio of 5% or lower (almost no effect))
- N: Amaranthus retroflexus, herbicidal effect grade (Amaranthus retroflexus): 0 (Herbicidal ratio of 5% or lower (almost no effect))
- O: Chenopodium album, herbicidal effect grade (Chenopodium album): 0 (Herbicidal ratio of 5% or lower (almost no effect))
- P: Stellaria media, herbicidal effect grade (Stellaria media): 0 (Herbicidal ratio of 5% or lower (almost no effect))
- Q: Galium spurium, herbicidal effect grade (Galium spurium): 0 (Herbicidal ratio of 5% or lower (almost no effect))
- R: Veronica persica, herbicidal effect grade (Veronica persica): 0 (Herbicidal ratio of 5% or lower (almost no effect))
- c: corn, effect on crop grade (corn): 0 (Herbicidal ratio of 5% or lower (almost no effect))
- d: soybean, effect on crop grade (soybean): 0 (Herbicidal ratio of 5% or lower (almost no effect))
- b: directly sowed rice plant, effect on crop grade (rice plant): 2 (Herbicidal ratio of 20% or higher and lower than 40%)
- e: wheat, effect on crop grade (wheat): 0 (Herbicidal ratio of 5% or lower (almost no effect))
- f: beet, effect on crop grade (beet): 0 (Herbicidal ratio of 5% or lower (almost no effect))
- g: rapeseed, effect on crop grade (rapeseed): 0 (Herbicidal ratio of 5% or lower (almost no effect))

SMILES: CON=C(C)CC1CC(O)=C(c2c(C)cc(-c3ccncc3)cc2C)C1=O (centres unmarked) [6-105]
- herbicidal effect on H (Echinochloa crus-galli var. crus-galli), grade 0-5 [1]: 3 (Herbicidal ratio of 40% or higher and lower than 70%)
- herbicidal effect on D (Leptochloa chinensis), grade 0-5 (Leptochloa chinensis): 4 (Herbicidal ratio of 70% or higher and lower than 90%)
- effect on crop b (directly sowed rice plant), grade 0-5 [2]: 4 (Herbicidal ratio of 70% or higher and lower than 90%)
- F: Digitaria ciliaris, herbicidal effect (criteria of Test Example 1) (Digitaria ciliaris): 5 (Herbicidal ratio of 90% or more (almost completely withered))
- G: Setaria viridis, herbicidal effect (criteria of Test Example 1) (Setaria viridis): 5 (Herbicidal ratio of 90% or more (almost completely withered))
- H: Echinochloa crus-galli var. crus-galli, herbicidal effect (criteria of Test Example 1) [3]: 5 (Herbicidal ratio of 90% or more (almost completely withered))
- I: Avena fatua, herbicidal effect (criteria of Test Example 1) (Avena fatua): 2 (Herbicidal ratio of 20% or higher and lower than 40%)
- J: Alopecurus myosuroides, herbicidal effect (criteria of Test Example 1) (Alopecurus myosuroides): 2 (Herbicidal ratio of 20% or higher and lower than 40%)
- K: Lolium multiflorum Lam., herbicidal effect (criteria of Test Example 1) (Lolium multiflorum Lam.): 4 (Herbicidal ratio of 70% or higher and lower than 90%)
- L: Apera spica-venti, herbicidal effect (criteria of Test Example 1) (Apera spica-venti): 2 (Herbicidal ratio of 20% or higher and lower than 40%)
- M: Abutilon theophrasti, herbicidal effect (criteria of Test Example 1) (Abutilon theophrasti): 0 (Herbicidal ratio of 5% or lower (almost no effect))
- N: Amaranthus retroflexus, herbicidal effect (criteria of Test Example 1) (Amaranthus retroflexus): 0 (Herbicidal ratio of 5% or lower (almost no effect))
- O: Chenopodium album, herbicidal effect (criteria of Test Example 1) (Chenopodium album): 0 (Herbicidal ratio of 5% or lower (almost no effect))
- P: Stellaria media, herbicidal effect (criteria of Test Example 1) (Stellaria media): 0 (Herbicidal ratio of 5% or lower (almost no effect))
- Q: Galium spurium, herbicidal effect (criteria of Test Example 1) (Galium spurium): 3 (Herbicidal ratio of 40% or higher and lower than 70%)
- R: Veronica persica, herbicidal effect (criteria of Test Example 1) (Veronica persica): 3 (Herbicidal ratio of 40% or higher and lower than 70%)
- c: corn, effect on crop (criteria of Test Example 1) (corn): 3 (Herbicidal ratio of 40% or higher and lower than 70%)
- d: soybean, effect on crop (criteria of Test Example 1) (soybean): 0 (Herbicidal ratio of 5% or lower (almost no effect))
- b: directly sowed rice plant, effect on crop (criteria of Test Example 1) (rice plant): 3 (Herbicidal ratio of 40% or higher and lower than 70%)
- e: wheat, effect on crop (criteria of Test Example 1) (wheat): 0 (Herbicidal ratio of 5% or lower (almost no effect))
- f: beet, effect on crop (criteria of Test Example 1) (beet): 0 (Herbicidal ratio of 5% or lower (almost no effect))
- g: rapeseed, effect on crop (criteria of Test Example 1) (rapeseed): 4 (Herbicidal ratio of 70% or higher and lower than 90%)
